Laboratory results from PubChem BioAssay (NCI).
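Each compound was tested at five concentrations against cells in 96-well plates for 48 hours. TGI denotes the concentration required for complete inhibition of growth.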

Assays:
Test in all cases: NCI-60 cell line screen, 48 h
HL-60(TB) leukemia = tested on: HL-60(TB) leukemia
SNB-19 CNS = tested on: SNB-19 CNS
A549 NSCLC = tested on: A549 NSCLC
OVCAR-5 ovarian = tested on: OVCAR-5 ovarian
NCI-H226 lung = tested on: NCI-H226 lung
SNB-78 CNS = tested on: SNB-78 CNS
NCI-H23 lung = tested on: NCI-H23 lung
MALME-3M melanoma = tested on: MALME-3M melanoma
COLO 205 colon = tested on: COLO 205 colon
RPMI-8226 leukemia = tested on: RPMI-8226 leukemia
A498 renal = tested on: A498 renal
HOP-18 NSCLC = tested on: HOP-18 NSCLC
HOP-92 NSCLC = tested on: HOP-92 NSCLC
IGROV1 ovarian = tested on: IGROV1 ovarian
OVCAR-3 ovarian = tested on: OVCAR-3 ovarian
M14 melanoma = tested on: M14 melanoma
OVCAR-8 ovarian = tested on: OVCAR-8 ovarian
SK-MEL-2 melanoma = tested on: SK-MEL-2 melanoma
NCI-H522 lung = tested on: NCI-H522 lung
HOP-62 NSCLC = tested on: HOP-62 NSCLC
DLD-1 colon = tested on: DLD-1 colon
DMS 114 small cell lung = tested on: DMS 114 small cell lung
SN12C renal = tested on: SN12C renal
CAKI-1 renal = tested on: CAKI-1 renal
HCT-116 colon = tested on: HCT-116 colon
OVCAR-4 ovarian = tested on: OVCAR-4 ovarian
MOLT-4 leukemia = tested on: MOLT-4 leukemia
SK-MEL-28 melanoma = tested on: SK-MEL-28 melanoma
SR leukemia = tested on: SR leukemia
SK-MEL-5 melanoma = tested on: SK-MEL-5 melanoma
CCRF-CEM leukemia = tested on: CCRF-CEM leukemia
SK-OV-3 ovarian = tested on: SK-OV-3 ovarian
RXF 393 renal = tested on: RXF 393 renal
SNB-75 CNS = tested on: SNB-75 CNS
ACHN renal = tested on: ACHN renal
UACC-257 melanoma = tested on: UACC-257 melanoma
HCC-2998 colon = tested on: HCC-2998 colon
HCT-15 colon = tested on: HCT-15 colon
HT29 colon = tested on: HT29 colon
U251 CNS = tested on: U251 CNS
UO-31 renal = tested on: UO-31 renal
LOX IMVI melanoma = tested on: LOX IMVI melanoma
EKVX NSCLC = tested on: EKVX NSCLC
DMS 273 small cell lung = tested on: DMS 273 small cell lung
UACC-62 melanoma = tested on: UACC-62 melanoma
LXFL 529 NSCLC = tested on: LXFL 529 NSCLC
SW-620 colon = tested on: SW-620 colon
SF-295 CNS = tested on: SF-295 CNS
786-0 renal = tested on: 786-0 renal
SF-268 CNS = tested on: SF-268 CNS
SF-539 CNS = tested on: SF-539 CNS
K-562 leukemia = tested on: K-562 leukemia
KM20L2 colon = tested on: KM20L2 colon
NCI-H460 lung = tested on: NCI-H460 lung
XF 498 CNS = tested on: XF 498 CNS
TK-10 renal = tested on: TK-10 renal
M19-MEL melanoma = tested on: M19-MEL melanoma
KM12 colon = tested on: KM12 colon

Measured: TGI

CCC(C)CCOC(=O)c1ccc(N=Cc2ccc(C=Nc3ccc(C(=O)OCCC(C)CC)cc3)cc2)cc1 (stereo unspecified)
not listed: XF 498 CNS | TK-10 renal | M19-MEL melanoma | KM12 colon
> 100 µM: all other assays above

N#Cc1cccc2c1Nc1ccccc1S2
92.3 µM: HOP-92 NSCLC
not listed: LXFL 529 NSCLC
> 100 µM: all other assays above
